`COc1ccc(/C=C/C(=O)CC(=O)/C=C/c2ccc(N(C)C)cc2[N+](=O)[O-])cc1O` [CU197, (1E,6E)-1-(4-dimethylamino-2-nitrophenyl)-7-(3-hydroxy-4-methoxyphenyl)hepta-1,6-diene-3,5-dione]: the melting point is 183 to 186 °C.

As for `O=C(/C=C/c1ccc(O)cc1)CC(=O)/C=C/c1cc(Cl)cc(Cl)c1` [CU201, (1E,6E)-1-(3,5-dichlorophenyl)-7-(4-hydroxyphenyl)hepta-1,6-diene-3,5-dione], the melting point was in the range of 165 to 172 °C.

`COc1ccc(/C=C/C(=O)CC(=O)/C=C/c2ccc(N(C)C)cc2Cl)cc1O` [CU202, (1E,6E)-1-(2-chloro-4-dimethylaminophenyl)-7-(3-hydroxy-4-methoxyphenyl)hepta-1,6-diene-3,5-dione] gave a melting point of 160 to 164 °C.

Consider `CS(=O)(=O)c1ccc(/C=C/C(=O)CC(=O)/C=C/c2ccc(O)cc2)cc1` [CU203, (1E,6E)-1-(4-hydroxyphenyl)-7-(4-methanesulfonylphenyl)hepta-1,6-diene-3,5-dione], for which the melting point was in the range of 221 to 224 °C.

`COc1cc(/C=C/C(=O)CC(=O)/C=C/c2ccc(O)cc2)cc(OC)c1OC` [CU204, (1E,6E)-1-(4-hydroxyphenyl)-7-(3,4,5-trimethoxyphenyl)hepta-1,6-diene-3,5-dione]: the melting point was 101 to 105 °C.

Take `COc1ccc(/C=C/C(=O)CC(=O)/C=C/c2cc(OC)c(OC)c(OC)c2)cc1O` [CU205, (1E,6E)-1-(3-hydroxy-4-methoxyphenyl)-7-(3,4,5-trimethoxyphenyl)hepta-1,6-diene-3,5-dione]: the melting point fell in the range of 195 to 200 °C.

`CN(C)c1ccc(/C=C/C(=O)CC(=O)/C=C/c2ccc(O)cc2)cc1` [CU207, (1E,6E)-1-(4-dimethylaminophenyl)-7-(4-hydroxyphenyl)hepta-1,6-diene-3,5-dione]: the melting point was 205 to 209 °C.

`COc1cc(/C=C/C(=O)CC(=O)/C=C/c2ccc3c(c2)OCCO3)ccc1O` [CU209, (1E,6E)-1-(2,3-dihydrobenzo[1,4]dioxin-6-yl)-7-(4-hydroxy-3-methoxyphenyl)hepta-1,6-diene-3,5-dione] had a melting point of 141 to 145 °C.

In turn, `COc1ccc(/C=C/C(=O)CC(=O)/C=C/c2ccc3c(c2)OCCO3)cc1O` [CU210, (1E,6E)-1-(2,3-dihydrobenzo[1,4]dioxin-6-yl)-7-(3-hydroxy-4-methoxyphenyl)hepta-1,6-diene-3,5-dione] yielded a melting point of 163 to 165 °C.

Compound `COc1ccc(/C=C/C(=O)CC(=O)/C=C/c2ccco2)cc1O` [CU211, (1E,6E)-1-(furan-2-yl)-7-(3-hydroxy-4-methoxyphenyl)hepta-1,6-diene-3,5-dione] showed a melting point of 120 to 123 °C.

As for `COc1ccc(/C=C/C(=O)CC(=O)/C=C/c2cccs2)cc1O` [CU212, (1E,6E)-1-(3-hydroxy-4-methoxyphenyl)-7-(thiophen-2-yl)hepta-1,6-diene-3,5-dione], the melting point was 128 to 133 °C.

For `O=C(/C=C/c1ccc(O)cc1)CC(=O)/C=C/c1ccc(Oc2ccccc2)cc1` [CU213, (1E,6E)-1-(4-hydroxyphenyl)-7-(4-phenoxyphenyl)hepta-1,6-diene-3,5-dione], the melting point fell in the range of 175 to 178 °C.

The compound `O=C(/C=C/c1ccc(O)cc1)CC(=O)/C=C/c1cccc(Oc2ccccc2)c1` [CU214, (1E,6E)-1-(4-hydroxyphenyl)-7-(3-phenoxyphenyl)hepta-1,6-diene-3,5-dione] displayed a melting point of 194 to 198 °C.

`O=C(/C=C/c1ccc(O)cc1)CC(=O)/C=C/c1ccc2c(c1)OCO2` [CU215, (1E,6E)-1-(benzo[1,3]dioxol-5-yl)-7-(4-hydroxyphenyl)hepta-1,6-diene-3,5-dione] had a melting point of 197 to 200 °C.

As to `COc1ccc(/C=C/C(=O)CC(=O)/C=C/c2ccc(SC)cc2)cc1O` [CU216, (1E,6E)-1-(3-hydroxy-4-methoxyphenyl)-7-(4-methylthiophenyl)hepta-1,6-diene-3,5-dione], the melting point lay within 158 to 162 °C.

Compound `COc1ccc(/C=C/C(=O)CC(=O)/C=C/c2cccnc2)cc1O` [CU217, (1E,6E)-1-(3-hydroxy-4-methoxyphenyl)-7-(pyridin-3-yl)hepta-1,6-diene-3,5-dione] returned a melting point of 174 to 175 °C.

As to `COc1ccc(/C=C/C(=O)CC(=O)/C=C/c2ccccn2)cc1O` [CU218, (1E,6E)-1-(3-hydroxy-4-methoxyphenyl)-7-(pyridin-2-yl)hepta-1,6-diene-3,5-dione], the melting point is 182 to 187 °C.

For the compound `COc1ccc(/C=C/C(=O)CC(=O)/C=C/c2ccc(Oc3ccccc3)cc2)cc1O` [CU219, (1E,6E)-1-(3-hydroxy-4-methoxyphenyl)-7-(4-phenoxyphenyl)hepta-1,6-diene-3,5-dione], the melting point is 185 to 187 °C.

Regarding `COc1ccc(/C=C/C(=O)CC(=O)/C=C/c2cccc(Oc3ccccc3)c2)cc1O` [CU220, (1E,6E)-1-(3-hydroxy-4-methoxyphenyl)-7-(3-phenoxyphenyl)hepta-1,6-diene-3,5-dione], the melting point was 148 to 150 °C.

Turning to `O=C(/C=C/c1ccc(O)cc1)CC(=O)/C=C/c1ccc2c(c1)OCCO2` [CU232, (1E,6E)-1-(2,3-dihydrobenzo[1,4]dioxin-6-yl)-7-(4-hydroxyphenyl)hepta-1,6-diene-3,5-dione], the melting point is 169 to 173 °C.

Regarding `O=C(/C=C/c1ccc(O)cc1)CC(=O)/C=C/c1ccccn1` [CU233, (1E,6E)-1-(4-hydroxyphenyl)-7-(pyridin-2-yl)hepta-1,6-diene-3,5-dione], the melting point lay within 180 to 182 °C.

Take `CSc1ccc(/C=C/C(=O)CC(=O)/C=C/c2ccc(O)cc2)cc1` [CU235, (1E,6E)-1-(4-hydroxyphenyl)-7-(4-methylthiophenyl)hepta-1,6-diene-3,5-dione]: the melting point is 169 to 171 °C.

`CN(C)CCCOc1ccc(/C=C/C(=O)CC(=O)/C=C/c2ccc(O)cc2)cc1` [CU236, (1E,6E)-1-[4-(3-dimethylaminopropoxy)phenyl]-7-(4-hydroxyphenyl)hepta-1,6-diene-3,5-dione] gave a melting point of 140 to 143 °C.

`COc1ccc(/C=C/C(=O)CC(=O)/C=C/c2ccc(OCCCN(C)C)cc2)cc1O` [CU241, (1E,6E)-1-[4-(3-dimethylaminopropoxy)phenyl]-7-(3-hydroxy-4-methoxyphenyl)hepta-1,6-diene-3,5-dione] displayed a melting point of 183 to 186 °C.

With `COCOc1c(O)cccc1/C=C/C(=O)CC(=O)/C=C/c1ccc(O)cc1` [CU247, (1E,6E)-1-[3-hydroxy-2-(methoxymethoxy)phenyl]-7-(4-hydroxyphenyl)hepta-1,6-diene-3,5-dione], the melting point lay in the range of 158 to 161 °C.

In turn, `COCOc1c(O)cccc1/C=C/C(=O)CC(=O)/C=C/c1ccc(OC)c(O)c1` [CU248, (1E,6E)-1-[3-hydroxy-2-(methoxymethoxy)phenyl]-7-(3-hydroxy-4-methoxyphenyl)hepta-1,6-diene-3,5-dione] yielded a melting point of 79 to 83 °C.

`COc1cccc(/C=C/C(=O)CC(=O)/C=C/c2ccc(O)cc2)c1O` [CU249, (1E,6E)-1-(2-hydroxy-3-methoxyphenyl)-7-(4-hydroxyphenyl)hepta-1,6-diene-3,5-dione] displayed a melting point of 169 to 175 °C.

`COc1cc(/C=C/C(=O)CC(=O)/C=C/c2cccc(OC)c2O)ccc1O` [CU250, (1E,6E)-1-(2-hydroxy-3-methoxyphenyl)-7-(4-hydroxy-3-methoxyphenyl)hepta-1,6-diene-3,5-dione] came in with a melting point of 156 to 158 °C.

`COc1ccc(/C=C/C(=O)CC(=O)/C=C/c2ccc(O)cc2)c(O)c1` [CU251, (1E,6E)-1-(2-hydroxy-4-methoxyphenyl)-7-(4-hydroxyphenyl)hepta-1,6-diene-3,5-dione] displayed a melting point of 137 to 139 °C.

Take `COc1ccc(O)c(/C=C/C(=O)CC(=O)/C=C/c2ccc(O)cc2)c1` [CU253, (1E,6E)-1-(2-hydroxy-5-methoxyphenyl)-7-(4-hydroxyphenyl)hepta-1,6-diene-3,5-dione]: the melting point fell in the range of 167 to 170 °C.

`COc1ccc(/C=C/C(=O)CC(=O)/C=C/c2ccc(O)c(OC)c2)c(O)c1` [CU256, (1E,6E)-1-(2-hydroxy-4-methoxyphenyl)-7-(4-hydroxy-3-methoxyphenyl)hepta-1,6-diene-3,5-dione]: the melting point was 108 to 113 °C.

For `COc1cc(/C=C/C(=O)CC(=O)/C=C/c2ccc(O)cc2O)ccc1O` [CU257, (1E,6E)-1-(2,4-dihydroxyphenyl)-7-(4-hydroxy-3-methoxyphenyl)hepta-1,6-diene-3,5-dione], the melting point fell in the range of 99 to 108 °C.

The compound `COc1ccc(/C=C/C(=O)CC(=O)/C=C/c2ccc(O)cc2O)cc1O` [CU258, (1E,6E)-1-(2,4-dihydroxyphenyl)-7-(3-hydroxy-4-methoxyphenyl)hepta-1,6-diene-3,5-dione] had a melting point of 104 to 109 °C.

`COCOc1cccc(O)c1/C=C/C(=O)CC(=O)/C=C/c1ccc(O)c(OC)c1` [CU259, (1E,6E)-1-[2-hydroxy-6-(methoxymethoxy)phenyl]-7-(4-hydroxy-3-methoxyphenyl)hepta-1,6-diene-3,5-dione] gave a melting point of 76 to 81 °C.

Regarding `CCn1c2ccccc2c2cc(/C=C/C(=O)CC(=O)/C=C/c3ccc4c(c3)c3ccccc3n4CC)ccc21` [CU263, (1E,6E)-1,7-bis(9-ethyl-9H-carbazol-3-yl)hepta-1,6-diene-3,5-dione], the melting point fell in the range of 264 to 267 °C.

For `O=C(/C=C/c1ccc(O)cc1)CC(=O)/C=C/c1cccc(O)c1O` [CU264, (1E,6E)-1-(2,3-dihydroxyphenyl)-7-(4-hydroxyphenyl)hepta-1,6-diene-3,5-dione], the melting point was 173 to 176 °C.

With `COc1ccc(/C=C/C(=O)CC(=O)/C=C/c2cccc(O)c2O)cc1O` [CU265, (1E,6E)-1-(2,3-dihydroxyphenyl)-7-(3-hydroxy-4-methoxyphenyl)hepta-1,6-diene-3,5-dione], the melting point lay in the range of 170 to 172 °C.

`COc1ccc(/C=C/C(=O)CC(=O)/C=C/c2cccc(OC)c2O)cc1O` [CU273, (1E,6E)-1-(2-hydroxy-3-methoxyphenyl)-7-(3-hydroxy-4-methoxyphenyl)hepta-1,6-diene-3,5-dione] registered a melting point of 155 to 157 °C.

The values above are taken from patent US8962674B2 (Tokyo Institute of Technology, priority 2006, dated 2015).
